From patent US20260137697A1, “THIAZOLO[5,4-D]PYRIMIDINE COMPOUNDS, COMPOSITIONS COMPRISING THEM AND USES THEREOF” (University de Montreal, priority 2022, published 2026)

What was measured:
CRAF = molecular target: T1, CRAF (Homo sapiens, UniProt P04049); assay: CRAF kinase activity assay (ADP-Glo); type: biochemical; details: Table 3; 10 μM ATP, kinase-dead MEK1 substrate
T1 construct: fused on or other part: GST tag (N-terminal according to the vendor's product)
How it was run: (§1)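 ADP-Glo luminescence read after 2 h reactions at 30° C containing 0.375 nM GST-kinase, kinase-dead MEK1 (75 nM), ATP at 10 μM, pH 7.5 HEPES/MgCl2/DTT, 0.05% DMSO. Compounds dosed from 100 to 0.01 nM (nine points); IC50 from variable-slope fit of % inhibition.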

pERK, HCT116 cells = assay: Phospho-ERK inhibition, AlphaLISA p-ERK 1/2, HCT-116; type: cell-based, human; details: Table 3; for IC50: HCT116 cells (KRAS G13D), 1 h treatment; for HCT116 pERK (Ymin %): lowest % inhibition value of the pERK IC50 curve, above −20% = no paradoxical induction
How it was run: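 Cells in RPMI-1640 with 5% FBS plated overnight, then treated 1 h with ten-point dilutions (10 μM to 0.33 nM, 0.5% DMSO). Lysate p-ERK1/2 (Thr202/Tyr204) read by AlphaLISA SureFire Ultra; % inhibition normalised to DMSO and 1 μM trametinib background, IC50 by four-parameter fit.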

BRAF = molecular target: T2, BRAF (Homo sapiens, UniProt P15056); assay: BRAF kinase activity assay (ADP-Glo); type: biochemical; details: Table 3; 10 μM ATP, kinase-dead MEK1 substrate
T2 construct: GST; purchased Millipore Sigma B4062-10UG
T2 sequence (P15056 whole entry): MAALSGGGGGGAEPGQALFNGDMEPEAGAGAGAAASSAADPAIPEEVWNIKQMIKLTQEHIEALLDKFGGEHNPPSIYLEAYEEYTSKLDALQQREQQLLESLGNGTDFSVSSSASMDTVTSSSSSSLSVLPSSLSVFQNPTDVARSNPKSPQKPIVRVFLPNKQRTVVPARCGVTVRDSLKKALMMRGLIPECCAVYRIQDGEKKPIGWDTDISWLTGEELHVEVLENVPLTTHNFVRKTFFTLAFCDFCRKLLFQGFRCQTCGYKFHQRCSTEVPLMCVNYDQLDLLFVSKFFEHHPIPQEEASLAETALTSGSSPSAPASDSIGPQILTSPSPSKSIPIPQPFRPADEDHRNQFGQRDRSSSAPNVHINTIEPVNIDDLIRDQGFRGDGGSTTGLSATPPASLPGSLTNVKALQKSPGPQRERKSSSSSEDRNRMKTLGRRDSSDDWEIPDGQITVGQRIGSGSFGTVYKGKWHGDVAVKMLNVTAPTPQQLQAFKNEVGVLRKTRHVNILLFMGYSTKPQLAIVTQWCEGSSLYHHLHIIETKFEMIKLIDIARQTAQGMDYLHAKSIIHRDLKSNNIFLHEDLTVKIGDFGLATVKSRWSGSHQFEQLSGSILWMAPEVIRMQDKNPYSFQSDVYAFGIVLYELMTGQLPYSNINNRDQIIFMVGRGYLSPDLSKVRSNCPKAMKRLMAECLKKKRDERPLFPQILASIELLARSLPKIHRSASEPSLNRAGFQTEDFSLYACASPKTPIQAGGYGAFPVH
How it was run: as §1

T1 sequence (P04049 whole entry Y340E/Y341E, form open, the tested form may be a part): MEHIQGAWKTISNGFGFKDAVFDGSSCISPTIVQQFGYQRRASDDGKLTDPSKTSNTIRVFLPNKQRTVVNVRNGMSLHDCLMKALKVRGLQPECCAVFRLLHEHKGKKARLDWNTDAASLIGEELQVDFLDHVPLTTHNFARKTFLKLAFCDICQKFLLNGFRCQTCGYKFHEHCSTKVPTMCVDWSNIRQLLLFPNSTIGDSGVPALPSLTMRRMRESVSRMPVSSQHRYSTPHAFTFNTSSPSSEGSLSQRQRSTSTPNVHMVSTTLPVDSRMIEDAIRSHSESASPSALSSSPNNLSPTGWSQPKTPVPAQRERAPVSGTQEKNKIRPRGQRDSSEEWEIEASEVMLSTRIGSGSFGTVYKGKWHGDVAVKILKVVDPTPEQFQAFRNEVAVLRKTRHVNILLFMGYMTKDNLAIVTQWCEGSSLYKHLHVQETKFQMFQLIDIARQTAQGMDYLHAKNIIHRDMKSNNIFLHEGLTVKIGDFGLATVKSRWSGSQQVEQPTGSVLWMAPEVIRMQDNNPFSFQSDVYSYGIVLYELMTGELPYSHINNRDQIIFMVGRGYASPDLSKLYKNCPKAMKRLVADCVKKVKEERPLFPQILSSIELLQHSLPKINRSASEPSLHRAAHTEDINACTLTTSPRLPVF

Row | SMILES | IC50 (CRAF) [nM] | IC50 (pERK, HCT116 cells) [nM] | IC50 (BRAF) [nM] | IC50 (pERK, HCT116 cells; Homo sapiens, HCT-116) [nM] | HCT116 pERK (Ymin %) (pERK, HCT116 cells) [%]
1 | CC1(CO)CCN(c2cccc3c2ncn3-c2nc3c(Nc4c(F)ccc(NS(=O)(=O)c5cccc(Cl)c5Cl)c4F)ncnc3s2)CC1 [Example 138] | > 50 | < 500 | > 10 |  | −14
2 | O=C(c1cccs1)c1cn(-c2nc3c(Nc4c(F)ccc(NS(=O)(=O)c5cccc(Cl)c5Cl)c4F)ncnc3s2)c2ccccc12 [Example 107] | > 50 |  | > 10 | 1000 to 10000 | 
3 | COC1(C)CCN(c2cccc3c2ncn3-c2nc3c(Nc4c(F)ccc(NS(=O)(=O)c5cccc(Cl)c5Cl)c4F)ncnc3s2)CC1 [Example 135] | > 50 | < 500 | 1 to 10 |  | −5
4 | Cc1c(Cl)cccc1S(=O)(=O)Nc1ccc(F)c(Nc2ncnc3sc(-n4cnc5c(C(C)(C)C#N)cccc54)nc23)c1F [Example 116] | 10 to 50 | < 500 | 1 to 10 |  | −3
5 | O=S(=O)(Nc1ccc(F)c(Nc2ncnc3sc(-n4cnc5c(N6CCC[C@H](O)C6)cccc54)nc23)c1F)c1cccc(Cl)c1Cl [Example 147] | 10 to 50 | < 500 | < 1 |  | −4
6 | O=S(=O)(CC1CCOCC1)c1cn(-c2nc3c(Nc4c(F)ccc(NS(=O)(=O)c5cccc(Cl)c5Cl)c4F)ncnc3s2)c2ccccc12 [Example 65] | 10 to 50 | 500 to 1000 | 1 to 10 |  | −3
7 | O=C(c1cn(-c2nc3c(Nc4c(F)ccc(NS(=O)(=O)c5cccc(Cl)c5Cl)c4F)ncnc3s2)c2ccccc12)N1CC(O)(C(F)(F)F)C1 [Example 96] | 10 to 50 | 500 to 1000 | > 10 |  | −1
8 | CN(CCN1CCOCC1)S(=O)(=O)c1cn(-c2nc3c(Nc4c(F)ccc(NS(=O)(=O)c5cccc(Cl)c5Cl)c4F)ncnc3s2)c2ccccc12 [Example 83] | 10 to 50 | 500 to 1000 | 1 to 10 |  | −10
9 | COCCCN(C)c1cccc2c1ncn2-c1nc2c(Nc3c(F)ccc(NS(=O)(=O)c4cccc(Cl)c4Cl)c3F)ncnc2s1 [Example 128] | 10 to 50 | < 500 | 1 to 10 |  | 1
10 | CN(CC(F)F)S(=O)(=O)c1cn(-c2nc3c(Nc4c(F)ccc(NS(=O)(=O)c5cccc(Cl)c5Cl)c4F)ncnc3s2)c2ccccc12 [Example 75] | 10 to 50 | 1000 to 10000 | > 10 |  | −5
11 | CC(=O)c1cn(-c2nc3c(Nc4c(F)ccc(NS(=O)(=O)c5cccc(Cl)c5Cl)c4F)ncnc3s2)c2ccccc12 [Example 88] | > 50 | 1000 to 10000 | 1 to 10 |  | −8
12 | O=S(=O)(Nc1ccc(F)c(Nc2ncnc3sc(-n4cnc5c(N6CC7CC6CO7)cccc54)nc23)c1F)c1cccc(Cl)c1Cl (centres unmarked) [Example 127] | 10 to 50 | < 500 | 1 to 10 |  | 1
13 | COc1ccc(S(=O)(=O)Nc2ccc(F)c(Nc3ncnc4sc(-n5cnc6c(C(C)(C)C#N)cccc65)nc34)c2F)c(C)c1F [Example 118] | > 50 | < 500 | > 10 |  | −14
14 | CCC(=O)c1cn(-c2nc3c(Nc4c(F)ccc(NS(=O)(=O)c5cccc(Cl)c5Cl)c4F)ncnc3s2)c2ccccc12 [Example 91] | > 50 |  | > 10 | 1000 to 10000 | 
15 | COc1ccc(S(=O)(=O)Nc2ccc(F)c(Nc3ncnc4sc(-n5cnc6c(N)cccc65)nc34)c2F)c(C)c1Cl [Example 13] | 10 to 50 | 1000 to 10000 | 1 to 10 |  | −14
16 | Cc1c(F)cccc1S(=O)(=O)Nc1ccc(F)c(Nc2ncnc3sc(-n4cc(C(=O)NCc5cccnc5)c5ccccc54)nc23)c1F [Example 29] | > 50 | 500 to 1000 | > 10 |  | 5
17 | O=C1CCCC12CCN(c1cccc3c1ncn3-c1nc3c(Nc4c(F)ccc(NS(=O)(=O)c5cccc(Cl)c5Cl)c4F)ncnc3s1)CC2 [Example 151] | 10 to 50 | < 500 | 1 to 10 |  | −2
18 | O=S(=O)(Nc1ccc(F)c(Nc2ncnc3sc(-n4cnc5c(N6CCC7(CCCO7)CC6)cccc54)nc23)c1F)c1cccc(Cl)c1Cl [Example 136] | 10 to 50 | < 500 | > 10 |  | −17
19 | O=S(=O)(Nc1ccc(F)c(Nc2ncnc3sc(-n4cnc5c(N6CCC[C@@H](O)C6)cccc54)nc23)c1F)c1cccc(Cl)c1Cl [Example 148] | 10 to 50 | < 500 | 1 to 10 |  | −2

Further lines, with some results ahead:

Row | IC50 (CRAF) [nM] | IC50 (pERK, HCT116 cells) [nM] | IC50 (BRAF) [nM] | IC50 (pERK, HCT116 cells; Homo sapiens, HCT-116) [nM] | SMILES | HCT116 pERK (Ymin %) (pERK, HCT116 cells) [%]
20 | < 10 | < 500 | 1 to 10 |  | CC(C)(O)[C@@H]1CCN(C(=O)c2cn(-c3nc4c(Nc5c(F)ccc(NS(=O)(=O)c6cccc(Cl)c6Cl)c5F)ncnc4s3)c3ccccc23)C1 [Example 90] | −6
21 | 10 to 50 | 500 to 1000 | 1 to 10 |  | CC(C)(O)[C@@H]1CCCN1C(=O)c1cn(-c2nc3c(Nc4c(F)ccc(NS(=O)(=O)c5cccc(Cl)c5Cl)c4F)ncnc3s2)c2ccccc12 [Example 77] | −5
22 | < 10 | < 500 | < 1 |  | O=S(=O)(Nc1ccc(F)c(Nc2ncnc3sc(-n4cnc5c(CCO)cccc54)nc23)c1F)c1cccc(Cl)c1Cl [Example 126] | −9
23 | < 10 | < 500 | < 1 |  | O=S(=O)(Nc1ccc(F)c(Nc2ncnc3sc(-n4cnc5c(OCCO)cccc54)nc23)c1F)c1cccc(Cl)c1Cl [Example 111] | −10
24 | < 10 | 500 to 1000 | 1 to 10 |  | Cc1cn(-c2nc3c(Nc4c(F)ccc(NS(=O)(=O)c5cccc(Cl)c5Cl)c4F)ncnc3s2)cn1 [Example 125] | 2
25 | < 10 |  | < 1 | < 500 | O=S(=O)(Nc1ccc(F)c(Nc2ncnc3sc(-n4cnc5c(N6CCNCC6)cccc54)nc23)c1F)c1cccc(Cl)c1Cl [Example 156, 2,3-dichloro-N-[2,4-difluoro-3-[[2-(4-piperazin-1-ylbenzimidazol-1-yl)thiazolo[5,4-d]pyrimidin-7-yl]amino]phenyl]benzenesulfonamide] | 
26 | 10 to 50 | < 500 | 1 to 10 |  | CN(C1CCOC1)S(=O)(=O)c1cn(-c2nc3c(Nc4c(F)ccc(NS(=O)(=O)c5cccc(Cl)c5Cl)c4F)ncnc3s2)c2ccccc12 (centres unmarked) [Example 66] | −13
27 | < 10 | < 500 | < 1 |  | CC1(N)CCN(c2cccc3c2ncn3-c2nc3c(Nc4c(F)ccc(NS(=O)(=O)c5cccc(Cl)c5Cl)c4F)ncnc3s2)CC1 [Example 157] | −14
28 | < 10 | < 500 | 1 to 10 |  | COc1nccc2c1ncn2-c1nc2c(Nc3c(F)ccc(NS(=O)(=O)c4cccc(Cl)c4Cl)c3F)ncnc2s1 [Example 105] | 4
29 | < 10 | < 500 | < 1 |  | COCCN(C)C(=O)c1cn(-c2nc3c(Nc4c(F)ccc(NS(=O)(=O)c5cccc(F)c5C)c4F)ncnc3s2)c2ccccc12 [Example 43] | 9
30 | < 10 | 500 to 1000 | < 1 |  | O=C(c1cn(-c2nc3c(Nc4c(F)ccc(NS(=O)(=O)c5cccc(Cl)c5Cl)c4F)ncnc3s2)c2ccccc12)N1CCC(CO)C1 (centres unmarked) [Example 52] | −9
31 | < 10 |  | 1 to 10 | 500 to 1000 | O=S(=O)(Nc1ccc(F)c(Nc2ncnc3sc(-n4cnc5c(F)c(F)ccc54)nc23)c1F)c1cccc(Cl)c1Cl [Example 49] | 
32 | < 10 | < 500 | 1 to 10 |  | NC(=O)c1cccc2c1ncn2-c1nc2c(Nc3c(F)ccc(NS(=O)(=O)c4cccc(Cl)c4Cl)c3F)ncnc2s1 [Example 123] | −11
33 | < 10 | < 500 | 1 to 10 |  | CC1(O)CCN(C(=O)c2cn(-c3nc4c(Nc5c(F)ccc(NS(=O)(=O)c6cccc(Cl)c6Cl)c5F)ncnc4s3)c3ccccc23)CC1 [Example 85] | 8
34 | < 10 | < 500 | 1 to 10 |  | CCC1(O)CN(C(=O)c2cn(-c3nc4c(Nc5c(F)ccc(NS(=O)(=O)c6cccc(Cl)c6Cl)c5F)ncnc4s3)c3ccccc23)C1 [Example 95] | −6
35 | < 10 | 500 to 1000 | 1 to 10 |  | Cc1c(F)cccc1S(=O)(=O)Nc1ccc(F)c(Nc2ncnc3sc(-n4cc(C(=O)N(C)Cc5cccnc5)c5ccccc54)nc23)c1F [Example 31] | 7
36 | < 10 | < 500 | < 1 |  | CN(CCc1ccccn1)C(=O)c1cn(-c2nc3c(Nc4c(F)ccc(NS(=O)(=O)c5cccc(Cl)c5Cl)c4F)ncnc3s2)c2ccccc12 [Example 50] | 1
